The text below walks through data of US7524864B2, “Methods of treating sleep disorders” (Hypnion, Inc., priority 2004, dated 2009).

pKi: −log10 of the molar value. Read-outs that look alike come from different tables or passages of the source.

The target in test [1] is T1, human recombinant M1 expressed in CHO cells (Homo sapiens, UniProt P11229).
T1 construct: purchased PerkinElmer, Inc., Wellesley, Mass; host or cells: CHO cells
T1 sequence (P11229 1-460): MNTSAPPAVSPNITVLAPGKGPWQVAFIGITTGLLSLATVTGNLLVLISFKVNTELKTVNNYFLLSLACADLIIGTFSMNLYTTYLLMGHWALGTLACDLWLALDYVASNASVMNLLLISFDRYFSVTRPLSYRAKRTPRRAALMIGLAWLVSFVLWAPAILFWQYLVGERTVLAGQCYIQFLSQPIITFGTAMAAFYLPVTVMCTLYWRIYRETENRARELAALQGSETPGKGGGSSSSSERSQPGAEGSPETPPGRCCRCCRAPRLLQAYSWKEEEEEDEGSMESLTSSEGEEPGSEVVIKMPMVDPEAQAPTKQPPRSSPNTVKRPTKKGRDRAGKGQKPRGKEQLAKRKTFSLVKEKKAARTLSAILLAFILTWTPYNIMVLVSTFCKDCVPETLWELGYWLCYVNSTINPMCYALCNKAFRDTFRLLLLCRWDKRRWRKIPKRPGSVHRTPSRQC
As to conditions: reference compounds; read-out: Ki of reference compounds in M1 binding assay; cited from earlier work.

Test [2] concerns the target T2, H1 receptor (Bos taurus, UniProt P30546).
T2 construct: the receptors are obtained from bovine cerebellar membrane tissue; from tissue; host or cells: bovine cerebellar membranes
The experiment in a line: H1 histamine receptor competitive binding assay ([3H]pyrilamine displacement). The arrangement: species or system bovine.

The test system of test [3] is sleep (NREM, LUSB) in male Wistar rats. The test is described as follows: Sleep-wakefulness monitoring (SCORE-2000, EEG/EMG) in male Wistar rats. The format is in vivo, rat. To be noted: oral, CT-18. As for the experimental part: Sleep-wakefulness, locomotor activity and body temperature are monitored in male Wistar rats treated with a test compound (i.e., doxepin analog) initially at a concentration of 10 mg/kg. Higher and lower doses are assayed for select compounds (e.g., as high as 45 mg/kg, and as low as necessary to establish a no-effect dose). Treatments are administered at CT-18, the peak of the activity dominated period (6 hours after lights-off), and produced soporific (sleep-inducing) effects characterized by increased non-REM sleep time, increased sleep continuity, but without evidence of REM sleep inhibition or rebound insomnia.
Sleep-wakefulness, locomotor activity and body temperature are monitored in vivo with the disclosed sleep-inducing agents. Adult, male Wistar rats (250 g at time of surgery, Charles River Laboratories, Wilmington Mass.) were anesthetized (2% isoflourane in medical grade oxygen) and surgically prepared with a cranial implant to permit chronic electro-encephalogram (EEG) and electromyogram (EMG) recording. Body temperature and locomotor activity were monitored via a miniature transmitter (Mini-Mitter, Bend, Oreg.) surgically placed in the abdomen. The cranial implant consisted of stainless steel screws (two frontal [+3.2 AP from bregma, ±2.0 ML] and two occipital [−6.9 AP, ±5.5 ML]) for EEG recording. Two Teflon®-coated stainless steel wires were positioned under the nuchal trapezoid muscles for EMG recording. All leads were soldered to a miniature connector prior to surgery, and gas sterilized in ethylene oxide. The implant assembly was affixed to the skull with dental acrylic. A minimum of three weeks was allowed for surgical recovery.
Each rat is permanently housed in its own individual recording cage located within separate, ventilated compartments of custom-designed stainless steel cabinets. Each cage is enhanced with a filter-top riser and low-torque swivel-commutator. Food and water are available ad libitum. A 24-hr light-dark cycle (12 hours light, 12 hours dark) is maintained throughout the study. Animals are undisturbed for at least 48 hours before and after treatments.
Sleep and wakefulness is determined using “SCORE-2000™”(Hypnion, Worcester, Mass.)—an internet-based sleep-wake and physiological monitoring system. The system monitored amplified EEG (bandpass 1-30 Hz), integrated EMG (bandpass 10-100 Hz), body temperature and non-specific locomotor activity (LMA) via telemetry, and drinking activity, continuously and simultaneously. Arousal states are classified on-line as non-REM (NREM) sleep, REM sleep, wake, or theta-dominated wake every 10 seconds. Total drinking and locomotor activity counts, and body temperature were quantitiated and recorded each minute, using EEG feature extraction and pattern-matching algorithms. […] The classification algorithm used individually-taught EEG-arousal-state templates, plus EMG criteria to differentiate REM sleep from theta-dominated wakefulness, plus behavior-dependent contextual rules (e.g., if the animal was drinking, it is awake). Drinking and locomotor activity intensity (LMA) are recorded as discrete events every 10 seconds, while body temperature was recorded each minute. Locomotor activity was detected by a telemetry receiver (Mini-Mitter) beneath the cage. Telemetry measures (LMA and body temperature) are not part of the scoring algorithm; thus, sleep-scoring and telemetry data were independent measures.
Compounds are administered at CT-18, the peak of the activity-dominated period, in order to ensure prior wakefulness is sufficient to interact positively with hypnotic-drug effects, and sufficient time is allowed to view the time course of the treatment effect before lights-on (6 hours post-treatment). Compounds are suspended in sterile 0.25% or 0.5% methylcellulose (1-2 ml/kg). Treatments are administered orally as a bolus.
A parallel group study design is employed. […]

Test [4] addresses T1, human recombinant M1 expressed in CHO cells. The test is described as follows: M1 muscarinic receptor binding assay ([3H]-scopolamine, N-methyl chloride displacement). To be noted: Table 5; read-out: M1 inhibition constant Ki.
Test [5] concerns the target T3, human recombinant M2 expressed in CHO cells (Homo sapiens, UniProt P08172).
T3 construct: purchased PerkinElmer, Inc., Wellesley, Mass; host or cells: CHO cells
T3 sequence (P08172 1-466): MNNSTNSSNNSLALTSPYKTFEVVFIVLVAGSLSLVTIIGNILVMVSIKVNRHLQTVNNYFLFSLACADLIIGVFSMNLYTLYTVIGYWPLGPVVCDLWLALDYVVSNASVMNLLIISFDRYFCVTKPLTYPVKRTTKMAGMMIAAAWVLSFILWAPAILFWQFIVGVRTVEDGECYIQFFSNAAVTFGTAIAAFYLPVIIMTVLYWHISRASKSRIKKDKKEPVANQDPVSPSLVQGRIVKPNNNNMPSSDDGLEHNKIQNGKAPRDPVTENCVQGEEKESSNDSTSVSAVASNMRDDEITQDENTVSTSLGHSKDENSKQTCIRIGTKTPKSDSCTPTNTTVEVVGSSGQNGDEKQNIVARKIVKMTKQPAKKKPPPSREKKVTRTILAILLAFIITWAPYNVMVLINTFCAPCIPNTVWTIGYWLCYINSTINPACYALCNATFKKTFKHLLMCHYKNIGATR
The experiment in a line: M2 muscarinic receptor binding assay ([3H]-scopolamine, N-methyl chloride displacement). As to conditions: Table 5; read-out: M2 inhibition constant Ki.

The target in test [6] is T4, human recombinant M3 expressed in CHO cells (Homo sapiens, UniProt P20309).
T4 construct: purchased PerkinElmer, Inc., Wellesley, Mass; host or cells: CHO cells
The experiment in a line: M3 muscarinic receptor binding assay ([3H]-scopolamine, N-methyl chloride displacement). To be noted: Table 5; read-out: M3 inhibition constant Ki.

T2 sequence (P30546 whole entry): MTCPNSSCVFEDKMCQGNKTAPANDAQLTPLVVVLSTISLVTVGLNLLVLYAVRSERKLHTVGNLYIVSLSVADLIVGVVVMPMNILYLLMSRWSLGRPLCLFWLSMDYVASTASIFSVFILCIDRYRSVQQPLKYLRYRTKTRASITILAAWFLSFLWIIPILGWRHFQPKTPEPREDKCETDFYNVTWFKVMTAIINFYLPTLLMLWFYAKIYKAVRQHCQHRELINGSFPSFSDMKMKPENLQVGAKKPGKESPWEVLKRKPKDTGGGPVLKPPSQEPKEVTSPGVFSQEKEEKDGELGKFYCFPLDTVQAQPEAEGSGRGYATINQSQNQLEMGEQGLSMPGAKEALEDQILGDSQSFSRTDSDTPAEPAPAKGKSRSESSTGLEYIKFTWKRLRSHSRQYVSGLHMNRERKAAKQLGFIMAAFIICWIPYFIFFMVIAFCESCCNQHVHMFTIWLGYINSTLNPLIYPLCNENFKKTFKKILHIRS
T4 sequence (P20309 whole entry): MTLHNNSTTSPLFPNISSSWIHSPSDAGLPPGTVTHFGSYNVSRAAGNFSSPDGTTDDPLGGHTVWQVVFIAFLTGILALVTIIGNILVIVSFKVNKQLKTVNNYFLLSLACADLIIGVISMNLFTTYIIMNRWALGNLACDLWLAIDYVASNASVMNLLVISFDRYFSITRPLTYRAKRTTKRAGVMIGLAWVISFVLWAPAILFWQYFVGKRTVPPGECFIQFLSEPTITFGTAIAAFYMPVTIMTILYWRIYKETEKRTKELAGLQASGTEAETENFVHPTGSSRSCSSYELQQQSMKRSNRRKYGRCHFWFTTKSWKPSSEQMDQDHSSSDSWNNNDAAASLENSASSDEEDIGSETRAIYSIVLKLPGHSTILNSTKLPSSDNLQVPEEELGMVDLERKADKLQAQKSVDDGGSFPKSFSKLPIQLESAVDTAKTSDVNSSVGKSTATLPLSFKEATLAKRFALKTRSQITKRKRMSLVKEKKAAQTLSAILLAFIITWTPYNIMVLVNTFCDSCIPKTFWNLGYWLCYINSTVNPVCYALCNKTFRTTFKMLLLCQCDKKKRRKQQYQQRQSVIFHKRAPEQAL

Consider `C[N+]1(C)CCC(OC(=O)C(c2ccccc2)c2ccccc2)CC1` [4-DAMP methiodide], for which, in test [1], the pKi is 9.57.
On to `CC(C)(CN1CCC(=C2c3ccc(F)cc3CSc3ccccc32)CC1)C(=O)O.Cl` [Compound 8], for which the “specificity for H1 over the muscarinic receptors” value in test [2] (H1 versus M1, M2, M3 Ki) was “specific for H1 over the muscarinic receptors”. Besides, the pKi in test [2] (bovine H1, Table 5, read-out: H1 (bovine) inhibition constant Ki) is 7.30; in test [4], under 5.00; in test [5], under 5.00; in test [6], under 5.00. The “LUSB (longest uninterrupted sleep bout)” value in test [3] (3 mg/kg) stood at 4.7 ± 3.2 min; in test [3] (10 mg/kg), 6.3 ± 1.7 min; in test [3] (30 mg/kg), 10.9 ± 2.3 min; in test [3] (56 mg/kg), 9.3 ± 2.2 min; in test [3] (100 mg/kg) it was 13.2 ± 2.8 min. In addition, the NREM came to 20 ± 5 min in test [3] (10 mg/kg), 41 ± 9 min in test [3] (30 mg/kg), 57 ± 7 min in test [3] (56 mg/kg) and 52 ± 8 min in test [3] (100 mg/kg).
